Paper PMC6014988, “Precision therapeutic targeting of human cancer cell motility” (Nature Communications, 2018)
Several values for one entry are separate records, joined by “and”; a condition that tells them apart may be missing. Equal entries are not always repeated.

What was measured:
PC3-M cells = experiment: Boyden chamber cell invasion assay, PC3-M cells; format: cell-based, human
Description: Boyden chamber cell invasion assays were performed as previously described by us[30], using either denatured collagen (BD Biosciences) or type IV human collagen (BD Biosciences), with all experiments repeated, each in N = 4 replicates. In some experiments, as indicated, cells were transfected with an expression plasmid, using Lipofectamine 2000™ (Invitrogen), or with siRNA, using DharmaFect Duo (Thermo Scientific) and co-transfected with β-Galactosidase (Plasmid pCMV•SPORT-βgal; Life Technology). […]
For cell invasion, PC3-M cells […]
were treated with 10 µM compound for a total of 3 days, and cell invasion assays were run at the end of the 3 day period, in the presence of compound. Values are the mean±SEM of three separate experiments, each run in replicates of N=3. […]
assays were performed with PC3-M cells. Values are the mean±SEM of a single experiment, in replicates of N=4, repeated at least once (also N=4). […]

[1] = tested on: human PCa PC3-M cell orthotopic implants; experiment: Murine orthotopic implantation model of human PCa, lung metastasis; format: in vivo, mouse
Description: Prostate cancer: orthotopic implantation: Orthotopic implantation of human GFP-PC3-M PCa cells into 6–8 week male Balb/c athymic mice (Charles River Laboratories) and quantification of distant metastasis was performed as described by us[37]. Treatment with KBU2046, incorporated into Harlan Teklad 2016S® chow, began 1 week prior to implantation. Animals were excluded from the analysis if they died and/or met the criteria for killing in the 7 day post-operative period. Experimental groups were randomly assigned to cages prior to the initiation of the study. Metastasis were scored in a blinded fashion. Specifically, animals were assigned an ID number, resultant histologic slides contained a separate pathological ID number, slides were scored in a random fashion, after which the two numbers were linked up.

[2] = tested on: human prostate, breast, colon, and lung cancer cells; experiment: Single-cell migration assay; format: cell-based; conditions: 10 µM, 3 days
Description: Human prostate metastatic cells (PC3, PC3-M), and HPV-transformed normal (1532NPTX, 1542NPTX) and primary cancer (1532CPTX, 1542CPTX) cells, were treated with 10 µM genistein (G), KBU2046 (46), or vehicle (CO), and after 3 days, cell invasion was measured. Values are mean ± SEM of a single experiment in replicates of N = 4, with similar findings in multiple separate experiments (also N = 4). c Single-cell migration. Cell migration was measured after treatment for 3 days with 10 µM KBU2046 or vehicle (control). Values are mean ± SEM of a single experiment in replicates of N = 24, with similar findings in a separate experiment (also N = 24). *Denotes Student’s t-test P value <0.05, compared to controls. d Human cord blood hematopoietic stem cell colony formation assay. Values are the mean ± SD number of total, CFU-GM, CFU-GEMM, or BFU-E colonies at 14 days after treatment with KBU2046, from a single experiment in replicates of N = 2. e Induction of estrogen-responsive genes. Values are the mean ± SD of a single experiment, with similar results seen in a separate experiment, both in replicates of N = 2 […]

PC3 = experiment: Three-day MTT cell growth inhibition assay, PC3; format: cell-based, human; conditions: Homo sapiens, PC-3, 72 h, 3 days
[3] = Three-day MTT cell growth inhibition assay, PC3; format: cell-based, human; conditions: human, PC3 cells
1532NPTX = experiment: Three-day MTT cell growth inhibition assay, 1532NPTX; format: cell-based, human; conditions: Homo sapiens, 72 h, 3 days
1532CPTX = experiment: Three-day MTT cell growth inhibition assay, 1532CPTX; format: cell-based, human; conditions: Homo sapiens, 72 h, 3 days
[4] = as above; format: cell-based, human; conditions: human, 1532CPTX cells
NCI-60 cell line panel = experiment: NCI 60 cell line panel screening; format: cell-based, human; conditions: initial screening per DTP protocol
Description: panel. KBU2046 was submitted to the Developmental Therapeutics Program (DTP) of the US National Cancer Institute (NCI), underwent initial screening across the NCI 60 cell line panel per DTP protocol 1, and the resultant COMPARE diagram is depicted above. Based upon its lack of […]
Supplementary Figure 3. […] Estrogen […]
receptor positive MCF-7 cells were cultured under hormone free conditions transfected pERE-Luc or empty control vector, along with constitutive active β-gal, grown under estrogen-free conditions, and pre-treated for 24 hours with nanomolar concentrations of estradiol, or with micromolar concentrations of genistein or KBU2046, as indicated. Luciferase activity was measured, normalized to that of β-gal, and values expressed as the percent of untreated vector control cells. Values are the mean±SD of a single experiment, with similar results seen in a separate repeat experiment, both in replicates of N=2.
(also on this page, place not known: luciferase/B-gal activity, % untreated vector control)
(1 picture or pasted object on this page, not shown here)

[5] = molecular target: T1, CDC37/HSP90β heterocomplex (Homo sapiens, UniProt P08238+Q16543); experiment: DARTS assay with CDC37 and HSP90β combined; format: binding
T1 construct: made in house; host or cells: E. coli (Rosetta BL-21 for HSP90β, BL-21 DE-3 for CDC37)
T1 sequence (P08238 whole entry): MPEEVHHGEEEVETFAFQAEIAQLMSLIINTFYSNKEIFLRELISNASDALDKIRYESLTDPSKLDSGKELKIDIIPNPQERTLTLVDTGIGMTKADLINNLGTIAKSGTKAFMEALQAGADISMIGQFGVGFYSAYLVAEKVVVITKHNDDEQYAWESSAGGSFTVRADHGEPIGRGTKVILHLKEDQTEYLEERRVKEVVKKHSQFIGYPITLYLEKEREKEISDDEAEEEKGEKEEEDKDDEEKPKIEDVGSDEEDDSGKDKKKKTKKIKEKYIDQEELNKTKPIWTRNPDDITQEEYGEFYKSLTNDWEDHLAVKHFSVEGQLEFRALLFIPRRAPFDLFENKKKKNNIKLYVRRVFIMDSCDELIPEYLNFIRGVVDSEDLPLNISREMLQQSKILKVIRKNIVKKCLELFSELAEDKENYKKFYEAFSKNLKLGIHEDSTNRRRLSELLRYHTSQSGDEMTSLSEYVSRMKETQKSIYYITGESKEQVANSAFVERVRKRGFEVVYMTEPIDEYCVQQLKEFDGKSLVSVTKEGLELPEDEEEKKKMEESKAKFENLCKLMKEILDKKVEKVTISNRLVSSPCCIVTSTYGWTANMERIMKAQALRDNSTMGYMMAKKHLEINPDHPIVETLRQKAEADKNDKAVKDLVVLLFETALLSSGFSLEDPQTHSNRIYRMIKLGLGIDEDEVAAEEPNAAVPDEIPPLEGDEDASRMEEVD
T1 sequence (Q16543 whole entry): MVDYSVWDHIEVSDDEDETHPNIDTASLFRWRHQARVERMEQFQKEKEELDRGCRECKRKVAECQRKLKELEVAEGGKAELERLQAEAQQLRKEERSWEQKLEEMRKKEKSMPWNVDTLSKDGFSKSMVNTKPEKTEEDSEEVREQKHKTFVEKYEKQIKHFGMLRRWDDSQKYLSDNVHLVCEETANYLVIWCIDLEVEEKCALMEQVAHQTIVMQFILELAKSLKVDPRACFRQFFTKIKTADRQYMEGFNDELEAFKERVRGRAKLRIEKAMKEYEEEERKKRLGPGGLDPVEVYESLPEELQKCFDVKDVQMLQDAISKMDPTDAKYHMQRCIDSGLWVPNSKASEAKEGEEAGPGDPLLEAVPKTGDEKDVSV
Description: Fig. 5 KBU2046 stabilizes CDC37/HSP90β heterocomplexes. a KBU2046 stabilizes HSP90β/CDC37 heterocomplexes in a DARTS assay. Equimolar amounts of HSP90β and CDC37 protein were pre-incubated with KBU2046, and resultant thermolysin reaction products were detected by silver stain following SDS-PAGE. […] Atoms within 5 angstroms of KBU2046 are colored by element (carbon, green; nitrogen, blue; oxygen, red). d Potential surface of the whole CDC37/HSP90β dimer (color code: green—HSP90β; gray—CDC37; cyan—Arg167 from CDC37 bisecting the larger pocket and creating a new cleft into which KBU2046 binds)
Fluorescent thermal shift, isothermal titration calorimetry, and biolayer interferometry assays[46] were all performed as described by us using MEK4EE (37-399, S257E, T261E) cloned into pMCSG7 and KRX Competent E. coli cells (Promega Inc.) and above denoted full-length HSP90B and CDC37 vectors and Rosetta BL-21 and BL-21 DE-3 competent E. coli cells, respectively. DARTS assays were conducted as described, using equimolar amounts of CDC37 and HSP90β, thermolysin digestion, and silver stain visualization (ProteoSilver Silver Stain Kit, Sigma-Aldrich).

**Q.** For `O=C1c2ccccc2OCC1c1ccc(F)cc1` (racemic) [KBU2046, (±)-3(4-fluorophenyl)chroman-4-one], which “anti-invasion efficacy under TGFβ stimulation” value (PC3-M cells; PC3-M cells pretreated, then ± TGFβ) is on record?
**A.** retains efficacy

**Q.** What about the anti-invasion activity (PC3-M cells; PC3-M cells, 10 µM compound, 3 days) of the same compound?
**A.** anti-invasive efficacy at least equal

**Q.** And the decrease in metastasis ([1]; KBU2046 in chow, dose-dependent)?
**A.** up to 92%

**Q.** And the suppression of metastasis ([1]; at a plasma concentration of 24 nM)?
**A.** 92% and > 90%

**Q.** What about the primary tumor growth ([1]; tumor weight, mice of Fig. 2a) of the same compound?
**A.** does not inhibit primary tumor cell growth

**Q.** And the cell migration [2]?
**A.** inhibited the migration

**Q.** And the IC20 (PC3)?
**A.** > 50 µM

**Q.** What about the IC50 (PC3) of the same compound?
**A.** > 50 µM

**Q.** What about the viability at 3 days, 50 µM [3] of the same compound?
**A.** 88.1%

**Q.** What about the IC20 (1532NPTX) of the same compound?
**A.** > 50 µM

**Q.** What about the IC50 (1532NPTX) of the same compound?
**A.** > 50 µM

**Q.** What about the IC20 (1532CPTX) of the same compound?
**A.** > 50 µM

**Q.** What about the IC50 (1532CPTX) of the same compound?
**A.** > 50 µM

**Q.** And the viability at 3 days, 50 µM [4]?
**A.** 99.4%

**Q.** And the “toxicity to NCI-60 cells” value (NCI-60 cell line panel)?
**A.** not toxic

**Q.** And the “concentration at which effects were evident” value ([5]; CDC37 band increased, HSP90β degradation product decreased)?
**A.** 10 nM

**Q.** And the “protection from thermolysin digestion” value ([5]; equimolar HSP90β and CDC37)?
**A.** protected both proteins from digestion
